{"source": "patent US20260083838A1", "about": "“Adjuvant Composition Comprising STING Agonists” (GlaxoSmithKline Biologicals SA, priority 2021, published 2026)", "assay_type_in_all_cases": "physicochemical", "key": {"[1]": {"test": "Adsorption of the STING agonist and the antigen on Al(OH)3 (supernatant after centrifugation)", "settings": "groups 5, 6, 7, 8: 45, 15, 5 μg/ml STING agonist with 111 μg/ml Al(OH)3, or 15 μg/ml with 35 μg/ml Al(OH)3; antigen 20 μg/mL", "description": "(§1) The compatibility between the antigen and the STING agonist was assessed, on the one hand, by determining the amount of the STING agonist recovered (using HPLC) in the supernatant after centrifugation of the formulations described in the above groups 2, 3 and 4, and, on the other hand, by determining the amount and profile of the antigen recovered (using HPLC) in the supernatant after centrifugation of the formulations described in the above groups 2, 3 and 4. The adsorption of the STING agonist and the antigen on Al(OH)3 was similarly assessed by determining the amount of STING agonist and amount and profile of the antigen, respectively, recovered) in the supernatant after centrifugation of the formulations described in the above groups 5, 6, 7 and 8. The concentration of the HSV-2 gE-gI antigen was 20 μg/mL in each group. The precise methodology for preparing the STING agonist and Al(OH)3 formulation was as follows: a solution of Al(OH)3 in water for injection was prepared, the required amount of STING agonist was added, the required amount of HSV-2 gE-gI to have 20 μg/mL in final solution was added. The solution was then mixed for 30 minutes at room temperature. NaCl was added, and the mixture was mixed for 5 minutes."}, "[2]": {"test": "Minimal amount of Al(OH)3 needed to fully adsorb the STING agonist (fluorometry of supernatant)", "settings": "STING agonist 45 μg/ml, Al(OH)3 0 to 200 μg/ml (by reference to Al3+)", "description": "1.2 Next, the minimal amount of Al(OH)3 needed to fully adsorb the STING agonist was determined. Compound 1 was used. The amount of the STING agonist was fixed at 45 μg/ml and AL(OH)3 varied from 0 to 200 μg/ml (by reference to Al^3+), so that different ratios STING agonist:Al(OH)3 were tested. The different formulations (as indicated in Table 2) were mixed under agitation for 1 h. Samples were then centrifuged for 10 min at 8000 rpm. The supernatant of the centrifuged samples was then analysed to characterize the amount of STING agonist which was not adsorbed. The quantification was performed by fluorometry."}, "[3]": {"test": "Compatibility between the antigen and the STING agonist (HPLC, SDS PAGE of supernatant after centrifugation)", "settings": "groups 2, 3, 4: 45, 15, 5 μg/ml STING agonist aqueous, 20 μg/mL HSV-2 gE-gI, no added Al(OH)3", "description": "as §1"}}, "data": [{"smiles": "CCn1nc(C)cc1C(=O)/N=c1\\[nH]c2cc(C(N)=O)cc(OC)c2n1C/C=C/Cn1/c(=N/C(=O)c2cc(C)nn2CC)[nH]c2cc(C(N)=O)cc(OCCCOP(=O)(O)O)c21", "note": "[Compound 1, 3-(((E)-6-carbamoyl-3-((E)-4-((E)-5-carbamoyl-2-((1-ethyl-3-methyl-1H-pyrazole-5-carbonyl)imino)-7-methoxy-2,3-dihydro-1H-benzo[d]imidazol-1-yl)but-2-en-1-yl)-2-((1-ethyl-3-methyl-1H-pyrazole-5-carbonyl)imino)-2,3-dihydro-1H-benzo[d]imidazol-4-yl)oxy)propyl dihydrogen phosphate]", "values": [{"measurement": "adsorption of STING agonist on Al(OH)3 (STING agonist in supernatant)", "setting": "[1]", "result": "entire amount of the STING agonist was adsorbed on Al(OH)3"}, {"measurement": "adsorption of STING agonist on Al(OH)3 (in words)", "setting": "[2]", "result": "generally well adsorbed on Al(OH)3"}, {"measurement": "maximum ratio STING agonist to aluminium hydroxide allowing for an optimal adsorption", "setting": "[2]", "result": "about 1.5"}, {"measurement": "amount of STING agonist in supernatant of centrifuged vs non-centrifuged samples", "setting": "[3]", "result": "no aggregation or precipitation occurs in the presence of the antigen"}]}]}
